Assay results reported in PubChem BioAssay (NCI).
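Exposure lasted 48 hours, with cells grown in 96-well plates and compounds tested at five concentrations. At the GI50, growth is halved. TGI marks complete inhibition of growth.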

How the values were obtained:
Test in all cases: inhibition of tumour cell growth, NCI panel, 48 h
SF-268 CNS = test system: SF-268 CNS
A498 renal = test system: A498 renal
ACHN renal = test system: ACHN renal
HCT-15 colon = test system: HCT-15 colon
MCF7 breast = test system: MCF7 breast
T-47D breast = test system: T-47D breast
MOLT-4 leukemia = test system: MOLT-4 leukemia
UO-31 renal = test system: UO-31 renal
NCI-H460 lung = test system: NCI-H460 lung
HOP-92 NSCLC = test system: HOP-92 NSCLC

Row | SMILES | TGI (SF-268 CNS) | TGI (A498 renal) | TGI (ACHN renal) | TGI (HCT-15 colon) | TGI (MCF7 breast) | TGI (T-47D breast) | TGI (MOLT-4 leukemia) | TGI (UO-31 renal) | TGI (NCI-H460 lung) | TGI (HOP-92 NSCLC) | GI50 (HOP-92 NSCLC) | GI50 (MCF7 breast) | GI50 (T-47D breast) | GI50 (MOLT-4 leukemia) | GI50 (SF-268 CNS) | GI50 (UO-31 renal)
1 | NC(CC(O)(c1ccccc1)c1ccccc1)c1ccccc1S (configuration not stated) | 24.8 µM | 32.7 µM | 27.3 µM | 33.6 µM | 29.9 µM | 37.4 µM | 59.6 µM | 23.5 µM | 38.3 µM | – | – | – | – | – | – | –
2 | CC(=O)OC(C)(C)CCC(=O)[C@](C)(O)[C@H]1[C@H](O)C[C@@]2(C)[C@@H]3CC=C4C(C)=C(OC5OC(CO)C(O)C(O)C5O)C(=O)C[C@@H]4[C@]3(C)C(=O)C[C@]12C (some centres not stated) | > 100 µM | > 100 µM | > 100 µM | > 100 µM | > 100 µM | > 100 µM | > 100 µM | > 100 µM | > 100 µM | > 100 µM | – | – | – | – | – | –
3 | O=C(O)CCc1ccc2c(c1)CC1(Cc3ccccc3C1)C2 | – | > 100 µM | > 100 µM | > 100 µM | > 100 µM | > 100 µM | > 100 µM | > 100 µM | – | > 100 µM | – | – | – | – | – | –
4 | CN(C)c1ccc(/C=C/C(=O)O)cc1 | > 100 µM | > 100 µM | > 100 µM | > 100 µM | – | – | > 100 µM | > 100 µM | > 100 µM | – | – | – | – | – | – | –
5 | CN(Cc1cnc2nc(N)nc(N)c2n1)c1ccc(C(=O)NC(CCC(=O)NC(CC(P(=O)(O)O)P(=O)(O)O)C(=O)O)C(=O)O)cc1 (configuration not stated) | > 100 µM | – | > 100 µM | > 100 µM | > 100 µM | > 100 µM | > 100 µM | > 100 µM | > 100 µM | > 100 µM | – | – | – | – | – | –
6 | CC12ON(P(=O)(c3ccccc3)c3ccccc3)C(C)(c3ccccc31)c1ccccc12 | > 100 µM | – | > 100 µM | > 100 µM | – | > 100 µM | > 100 µM | > 100 µM | > 100 µM | > 100 µM | – | – | – | – | – | –
7 | O=[N+]([O-])c1ccc(O)c(/C=N/c2nc(-c3ccccc3)cs2)c1 | 78 µM | > 100 µM | > 100 µM | > 89.7 µM | > 100 µM | 91.6 µM | 43.3 µM | > 86.4 µM | > 86.7 µM | 75.2 µM | – | – | – | – | – | –
8 | CC(=O)OC(C)c1cc2c(s1)C(=O)c1c(C(C)OC(C)=O)csc1C2=O (configuration not stated) | 13.2 µM | 3.64 µM | 2.82 µM | 4.4 µM | 3.09 µM | 5.52 µM | 5.08 µM | 2.9 µM | 1.58 µM | 5.55 µM | – | – | – | – | – | –
9 | CC1=CCC[C@H]2[C@](C)(CC3=CC(=O)C(Sc4ccccc4)=CC3=O)[C@@H](C)CC[C@]12C | – | 39 µM | 35.3 µM | 35.7 µM | 51.7 µM | 72 µM | 6.03 µM | 29.1 µM | 42.9 µM | 31.9 µM | 16.8 µM | 22.6 µM | 20.4 µM | 2.59 µM | – | –
10 | COc1cc2c(cc1OC)[C@@](C)(C(O)C(O)C(C)(C)O)NCC2 (some centres not stated) | > 100 µM | > 100 µM | > 100 µM | > 100 µM | > 100 µM | > 100 µM | > 100 µM | > 100 µM | – | > 100 µM | – | – | – | – | – | –
11 | COc1ccc(C2SCC(=O)N2NC(=O)C(C)Oc2ccccc2C)cc1 (configuration not stated) | > 100 µM | > 100 µM | > 100 µM | > 100 µM | > 100 µM | > 100 µM | 87.9 µM | > 100 µM | > 100 µM | > 100 µM | – | – | – | – | – | –
12 | COc1c(C)c(C/C=C(\C)CC/C=C(\C)CC/C=C(\C)CCC=C(C)C)c(OC)c2ccccc12 | > 100 µM | – | > 100 µM | > 100 µM | > 100 µM | – | > 100 µM | > 100 µM | > 100 µM | > 100 µM | – | – | – | – | – | –
13 | COC(=O)c1ccccc1C1=C([N+](=O)[O-])C(c2ccccc2)C(C#N)=C(N)O1 (configuration not stated) | > 100 µM | – | > 100 µM | 46.6 µM | – | > 100 µM | > 100 µM | – | > 100 µM | > 100 µM | – | – | – | – | – | –
14 | CCOC(=O)C(=CN1CCNC1=S)C(=O)OCC | > 100 µM | > 100 µM | > 100 µM | > 100 µM | > 100 µM | > 100 µM | > 100 µM | > 100 µM | > 100 µM | > 100 µM | > 100 µM | – | – | – | > 100 µM | > 100 µM
15 | COc1cc(CCN(C)C)cc(OC)c1OC | > 100 µM | > 100 µM | > 100 µM | > 100 µM | > 100 µM | > 100 µM | > 100 µM | – | > 100 µM | > 100 µM | – | – | – | – | – | –
16 | Cc1cc2oc(C)c(S(=O)(=O)NC(=O)Nc3ccc(Cl)cc3)c(=O)c2c(=O)o1 | > 100 µM | > 100 µM | > 100 µM | > 100 µM | > 100 µM | > 100 µM | > 100 µM | > 100 µM | > 100 µM | > 100 µM | – | – | – | – | – | –
17 | CC12CCC(C(=Nc3cc(C(F)(F)F)cc(C(F)(F)F)c3)C1=O)C2(C)C (configuration not stated) | 84.5 µM | 62.5 µM | > 100 µM | > 100 µM | > 100 µM | 74.3 µM | 44.2 µM | > 100 µM | > 100 µM | – | – | – | – | – | – | –
18 | CCOC(=O)c1[nH]c2cccc3c2c1CC[C@H](NC(=O)C(F)(F)F)C3=O | > 100 µM | > 100 µM | – | > 100 µM | > 100 µM | – | > 100 µM | > 100 µM | > 100 µM | 69.4 µM | – | – | – | – | – | –
19 | CN[C@@H](C)[C@@H](O)c1ccccc1 | > 100 µM | – | > 100 µM | > 100 µM | > 100 µM | > 100 µM | > 100 µM | > 100 µM | > 100 µM | > 100 µM | – | – | – | – | – | –
20 | CCCc1nnc2sc(COc3cc(Cl)c(OCc4nn5c(CCC)nnc5s4)cc3Cl)nn12 | > 100 µM | 98.4 µM | > 100 µM | > 100 µM | 72.9 µM | 63.5 µM | > 100 µM | – | > 100 µM | 70.7 µM | – | – | – | – | – | –
21 | CC(C)(C)OC(=O)N1[C@@H]2Cc3ccc(N)cc3[C@@]1(C)c1ccccc12 | > 100 µM | 79.6 µM | > 100 µM | 32.9 µM | > 100 µM | 70.7 µM | 48.5 µM | > 100 µM | 48.8 µM | 52.3 µM | – | – | – | – | – | –
22 | COc1cccc(-c2nccc3c(OCc4ccccc4)c(OC)c(OC)cc23)c1 | > 100 µM | > 100 µM | > 100 µM | > 100 µM | – | – | > 100 µM | > 100 µM | – | > 100 µM | – | – | – | – | – | –
